In patent US5162328A, “N-[3-[2-(1H-imidazol-1-yl)ethoxy]phenyl]-4-(2-thienyl)-2-pyrimidinamine and pharmacologically acceptable salts” (American Cyanamid Company, priority 1991, dated 1992):
Like-named read-outs stand apart in the source and are kept apart here.

Assay: Pharmacokinetics in dogs (plasma concentration by HPLC)
Format: in vivo, dog (beagle)
Conditions: for AUC(0-t) / Cmax / Tmax / half-life / AUC(0-inf) / concentration at 0.5 h / concentration at 1 h / concentration at 2 h / concentration at 4 h / concentration at 7 h / concentration at 12 h: 2 mg/kg/day PO; for AUC(0-inf): read-out: AUCO- (to infinite time)
Method: Since dogs are used in toxicology studies of antiasthma compounds, this species is chosen for pharmacokinetic evaluations. Use of the dog permits the pharmacokinetic comparison of 2 or more compounds in the same test animal, an evaluation which could not be conveniently performed in a smaller species. For each test compound, normal dogs are given a dose of 2.0 mg/kg/day for 5 consecutive days. There is a washout period of 1 month between the study of each of the test compounds in the same four dogs. Each test compound is administered as a solution of 5 mg/ml in either 0.05 or 0.1N HCl which is dispensed into a gelatin capsule immediately prior to dosage.
Heparinized blood samples are obtained from each animal on the first, third and fifth day of dosage at 0.5, 1.0, 2.0, 4.0, 7.0, 12.0 and 24.0 hours after the dose. The samples are centrifuged immediately to obtain plasma which is frozen until analyzed.
Analysis of plasma is performed using High Performance Liquid Chromatography (HPLC). The analytical procedure is essentially identical for each compound. The internal standard used for N-[3-[2-(1H-imidazol-1-yl)ethoxy]phenyl]-4-(2-thienyl)2-pyrimidinamine is 2-chloro-11-(4-methyl-1-piperazinyl)dibenz[b,f][1,4]oxazepine succinate, while for 2-methyl-N^4 -[4-(4-pyridinyl)-2-pyrimidinyl]-1,4-benzenediamine dihydrochloride and N-[4-[2-(diethylamino)ethoxy]phenyl]-4-(4-pyridinyl)-2-pyrimidnamine dihydrochloride the internal standard is 7-ethoxy-coumarin. In a typical procedure, a 0.4 ml volume of acetonitrile containing internal standard is added a 0.2 ml volume of serum. The sample is mixed by vortexing and centrifuged. The clear protein free supernatent fluid is decanted into a clean tube and evaporated to dryness. The dry residue is dissolved in 0.2 ml of HPLC mobile phase and 50 ul of this solution injected. Peaks corresponding to the test compound being measured and to the internal standard compound are quantitated by their absorption of ultraviolet light at 280 nm. Each set of analytical samples is accompanied by the analysis of a group of standard dog plasma samples prepared to contain amounts of the compound being measured which encompasses the concentration range of the samples.
Four normal beagle dogs weighing between 9.2 and 10.2 Kg are used in the study.

[1] = dog, plasma, po, 2 mg/kg/day, Dog 3, day 3
[2] = dog, plasma, po, 2 mg/kg/day, Dog 3, day 5
[3] = dog, plasma, po, 2 mg/kg/day, Dog 4, day 1
[4] = dog, plasma, po, 2 mg/kg/day, Dog 4, day 3
[5] = dog, plasma, po, 2 mg/kg/day, Dog 4, day 5
[6] = dog, plasma, po, 2 mg/kg/day, Mean, day 1
[7] = dog, plasma, po, 2 mg/kg/day, Mean, day 3
[8] = dog, plasma, po, 2 mg/kg/day, Mean, day 5

c1cc(Nc2nccc(-c3cccs3)n2)cc(OCCn2ccnc2)c1 [N-[3-[2-(1H-imidazol-1-yl)ethoxy]phenyl]-4-(2-thienyl)-2-pyrimidinamine]
AUC(0-t) [1]: 799 ng·h/mL
Cmax [1]: 350 ng/mL
Tmax [1]: 1 h
half-life [1]: 1.62 h
AUC(0-inf) [1]: 955 ng·h/mL
concentration at 0.5 h (dog, plasma, po, 2 mg/kg/day, Dog 3, day 5, 0.5 h): < 30 ng/mL
concentration at 1 h (dog, plasma, po, 2 mg/kg/day, Dog 3, day 5, 1 h): 272 ng/mL
concentration at 2 h (dog, plasma, po, 2 mg/kg/day, Dog 3, day 5, 2 h): 233 ng/mL
concentration at 4 h (dog, plasma, po, 2 mg/kg/day, Dog 3, day 5, 4 h): 114 ng/mL
concentration at 7 h (dog, plasma, po, 2 mg/kg/day, Dog 3, day 5, 7 h): < 30 ng/mL
concentration at 12 h (dog, plasma, po, 2 mg/kg/day, Dog 3, day 5, 12 h): < 30 ng/mL
AUC(0-t) [2]: 682 ng·h/mL
Cmax [2]: 272 ng/mL
Tmax [2]: 1 h
half-life [2]: 1.94 h
AUC(0-inf) [2]: 978 ng·h/mL
concentration at 0.5 h (dog, plasma, po, 2 mg/kg/day, Dog 4, day 1, 0.5 h): 173 ng/mL
concentration at 1 h (dog, plasma, po, 2 mg/kg/day, Dog 4, day 1, 1 h): 364 ng/mL
concentration at 2 h (dog, plasma, po, 2 mg/kg/day, Dog 4, day 1, 2 h): 325 ng/mL
concentration at 4 h (dog, plasma, po, 2 mg/kg/day, Dog 4, day 1, 4 h): 172 ng/mL
concentration at 7 h (dog, plasma, po, 2 mg/kg/day, Dog 4, day 1, 7 h): 40 ng/mL
concentration at 12 h (dog, plasma, po, 2 mg/kg/day, Dog 4, day 1, 12 h): < 30 ng/mL
AUC(0-t) [3]: 1340 ng·h/mL
Cmax [3]: 364 ng/mL
Tmax [3]: 1 h
half-life [3]: 1.64 h
AUC(0-inf) [3]: 1440 ng·h/mL
concentration at 0.5 h (dog, plasma, po, 2 mg/kg/day, Dog 4, day 3, 0.5 h): 65 ng/mL
concentration at 1 h (dog, plasma, po, 2 mg/kg/day, Dog 4, day 3, 1 h): 220 ng/mL
concentration at 2 h (dog, plasma, po, 2 mg/kg/day, Dog 4, day 3, 2 h): 144 ng/mL
concentration at 4 h (dog, plasma, po, 2 mg/kg/day, Dog 4, day 3, 4 h): 38 ng/mL
concentration at 7 h (dog, plasma, po, 2 mg/kg/day, Dog 4, day 3, 7 h): < 30 ng/mL
concentration at 12 h (dog, plasma, po, 2 mg/kg/day, Dog 4, day 3, 12 h): < 30 ng/mL
AUC(0-t) [4]: 452 ng·h/mL
Cmax [4]: 220 ng/mL
Tmax [4]: 1 h
half-life [4]: 1.61 h
AUC(0-inf) [4]: 551 ng·h/mL
concentration at 0.5 h (dog, plasma, po, 2 mg/kg/day, Dog 4, day 5, 0.5 h): < 30 ng/mL
concentration at 1 h (dog, plasma, po, 2 mg/kg/day, Dog 4, day 5, 1 h): 191 ng/mL
concentration at 2 h (dog, plasma, po, 2 mg/kg/day, Dog 4, day 5, 2 h): 197 ng/mL
concentration at 4 h (dog, plasma, po, 2 mg/kg/day, Dog 4, day 5, 4 h): 71 ng/mL
concentration at 7 h (dog, plasma, po, 2 mg/kg/day, Dog 4, day 5, 7 h): < 30 ng/mL
concentration at 12 h (dog, plasma, po, 2 mg/kg/day, Dog 4, day 5, 12 h): < 30 ng/mL
AUC(0-t) [5]: 510 ng·h/mL
Cmax [5]: 197 ng/mL
Tmax [5]: 2 h
AUC(0-inf) [5]: 694 ng·h/mL
concentration at 0.5 h (dog, plasma, po, 2 mg/kg/day, Mean of 4 dogs, day 1, 0.5 h): 235 ng/mL
concentration at 1 h (dog, plasma, po, 2 mg/kg/day, Mean of 4 dogs, day 1, 1 h): 405 ng/mL
concentration at 2 h (dog, plasma, po, 2 mg/kg/day, Mean of 4 dogs, day 1, 2 h): 318 ng/mL
concentration at 4 h (dog, plasma, po, 2 mg/kg/day, Mean of 4 dogs, day 1, 4 h): 188 ng/mL
concentration at 7 h (dog, plasma, po, 2 mg/kg/day, Mean of 4 dogs, day 1, 7 h): 52 ng/mL
concentration at 12 h (dog, plasma, po, 2 mg/kg/day, Mean of 4 dogs, day 1, 12 h): < 30 ng/mL
concentration at 0.5 h (dog, plasma, po, 2 mg/kg/day, Mean of 4 dogs, day 3, 0.5 h): 89 ng/mL
concentration at 1 h (dog, plasma, po, 2 mg/kg/day, Mean of 4 dogs, day 3, 1 h): 225 ng/mL
concentration at 2 h (dog, plasma, po, 2 mg/kg/day, Mean of 4 dogs, day 3, 2 h): 148 ng/mL
concentration at 4 h (dog, plasma, po, 2 mg/kg/day, Mean of 4 dogs, day 3, 4 h): 33 ng/mL
concentration at 7 h (dog, plasma, po, 2 mg/kg/day, Mean of 4 dogs, day 3, 7 h): < 30 ng/mL
concentration at 12 h (dog, plasma, po, 2 mg/kg/day, Mean of 4 dogs, day 3, 12 h): < 30 ng/mL
concentration at 0.5 h (dog, plasma, po, 2 mg/kg/day, Mean of 4 dogs, day 5, 0.5 h): 106 ng/mL
concentration at 1 h (dog, plasma, po, 2 mg/kg/day, Mean of 4 dogs, day 5, 1 h): 276 ng/mL
concentration at 2 h (dog, plasma, po, 2 mg/kg/day, Mean of 4 dogs, day 5, 2 h): 212 ng/mL
concentration at 4 h (dog, plasma, po, 2 mg/kg/day, Mean of 4 dogs, day 5, 4 h): 82 ng/mL
concentration at 7 h (dog, plasma, po, 2 mg/kg/day, Mean of 4 dogs, day 5, 7 h): < 30 ng/mL
concentration at 12 h (dog, plasma, po, 2 mg/kg/day, Mean of 4 dogs, day 5, 12 h): < 30 ng/mL
AUC(0-t) [6]: 1380 ng·h/mL
Cmax [6]: 405 ng/mL
Tmax [6]: 1 h
half-life [6]: 2.27 h
AUC(0-inf) [6]: 1620 ng·h/mL
AUC(0-t) [7]: 444 ng·h/mL
Cmax [7]: 225 ng/mL
Tmax [7]: 1 h
half-life [7]: 1.47 h
AUC(0-inf) [7]: 595 ng·h/mL
AUC(0-t) [8]: 659 ng·h/mL
Cmax [8]: 277 ng/mL
Tmax [8]: 1.25 h
half-life [8]: 1.5 h
AUC(0-inf) [8]: 871 ng·h/mL
k el (dog, plasma, po, 2 mg/kg/day, derived from mean of half-life values, read-out: elimination constant (converted)): 0.000107 s⁻¹
plasma half-life (in words) (dogs, compared with the two compounds of U.S. Pat. No. 4,788,195): increased plasma half-life and reproducibility
